Calls of active or inactive are those of the source. No cut-off for these calls is given here.
Assays:
[1] = target: Proteinase-activated receptor 2 (Homo sapiens) (UniProt P55085); assay: Inhibition of PAR2-mediated SLIGKV-NH2-induced interleukin-8 production in normal human epidermal keratinocytes preincubated for 24 hrs by ELISA
[2] = Toxicity in normal human epidermal keratinocytes assessed as effect on cell viability at 100 uM after 72 hrs by colorimetric assay; assay type: cell-based; settings: keratinocyte
[3] = target: Proteinase-activated receptor 2 (Homo sapiens) (UniProt P55085); assay: Inhibition of PAR2-mediated IL1-beta and SLIGKV-NH2-induced interleukin-8 production in normal human epidermal keratinocytes at 10 uM by ELISA
Keratinocyte [4] = assay: Effect on PAR2 gene expression in normal human epidermal keratinocytes assessed as effect on cell viability at 10 uM after 72 hrs; assay type: functional, cell-based
[5] = target: Proteinase-activated receptor 2 (Homo sapiens) (UniProt P55085); assay: Inhibition of PAR2-mediated SLIGKV-NH2-induced interleukin-8 production in normal human epidermal keratinocytes up to 100 uM preincubated for 24 hrs by ELISA
[6] = Toxicity in normal human epidermal keratinocytes assessed as effect on cell viability at 10 uM after 72 hrs by colorimetric assay; assay type: cell-based; settings: keratinocyte
Keratinocyte [7] = assay: Effect on PAR2 gene expression in normal human epidermal keratinocytes assessed as effect on cell viability at 100 uM after 72 hrs; assay type: functional, cell-based
[8] = target: Proteinase-activated receptor 2 (Homo sapiens) (UniProt P55085); assay: Inhibition of PAR2-mediated SLIGKV-NH2-induced interleukin-8 production in normal human epidermal keratinocytes at 10 uM preincubated for 24 hrs by ELISA
[9] = target: Proteinase-activated receptor 2 (Homo sapiens) (UniProt P55085); assay: Inhibition of PAR2-mediated SLIGKV-NH2-induced interleukin-8 production in normal human epidermal keratinocytes at 100 uM preincubated for 24 hrs by ELISA
[10] = target: Proteinase-activated receptor 2 (Homo sapiens) (UniProt P55085); assay: Inhibition of PAR2-mediated SLIGKV-NH2-induced interleukin-8 production in normal human epidermal keratinocytes at 5 uM preincubated for 24 hrs by ELISA

Proteinase-activated receptor 2 (Homo sapiens), sequence (P55085 whole entry): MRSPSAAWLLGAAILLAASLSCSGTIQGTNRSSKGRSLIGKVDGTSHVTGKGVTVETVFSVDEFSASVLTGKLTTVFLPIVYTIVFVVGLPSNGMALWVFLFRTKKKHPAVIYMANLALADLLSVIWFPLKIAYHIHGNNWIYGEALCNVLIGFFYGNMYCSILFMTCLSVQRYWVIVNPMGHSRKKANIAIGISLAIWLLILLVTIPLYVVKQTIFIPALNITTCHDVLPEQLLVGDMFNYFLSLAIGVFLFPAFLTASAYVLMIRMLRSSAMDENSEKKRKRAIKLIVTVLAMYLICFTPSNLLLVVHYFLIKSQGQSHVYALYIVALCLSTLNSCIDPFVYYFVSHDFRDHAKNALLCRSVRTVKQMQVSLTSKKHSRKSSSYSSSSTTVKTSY

inhibition [1]	inhibition [3]	inhibition [5]	inhibition [8]	inhibition [9]	inhibition [10]	Compound	Activity [2]	Activity (Keratinocyte [4])	Activity [6]	Activity (Keratinocyte [7])
inactive						CO[C@@H]1[C@@H](O[C@@H]2O[C@H](C)[C@@H](O[C@H]3C[C@@](C)(O)[C@@H](OC(=O)CC(C)C)[C@H](C)O3)[C@H](N(C)C)[C@H]2O)[C@@H](CC=O)C[C@@H](C)[C@@H](O)/C=C/C=C/C[C@@H](C)OC(=O)C[C@H]1OC(C)=O				
inactive						CO[C@H]1C[C@H](O[C@H]2[C@H](C)[C@@H](O[C@@H]3O[C@H](C)C[C@H](N(C)C)[C@H]3O)[C@@H](C)C[C@@]3(CO3)C(=O)[C@H](C)[C@@H](O)[C@@H](C)[C@@H](C)OC(=O)[C@@H]2C)O[C@@H](C)[C@@H]1O				
	Active	inactive				CC[C@H]1OC(=O)[C@H](C)[C@@H](O[C@H]2C[C@@](C)(OC)[C@@H](O)[C@H](C)O2)[C@H](C)[C@@H](O[C@@H]2O[C@H](C)C[C@H](N(C)C)[C@H]2O)[C@](C)(OC)C[C@@H](C)C(=O)[C@H](C)[C@@H](O)[C@]1(C)O [CLARITHROMYCIN]	Non-toxic	inactive	Non-toxic	inactive

The next lines start with the compound.

Compound	inhibition [1]	inhibition [3]	inhibition [5]	inhibition [8]	inhibition [9]	inhibition [10]	Activity [2]	Activity (Keratinocyte [4])	Activity [6]	Activity (Keratinocyte [7])
CC[C@H]1OC(=O)[C@H](C)[C@@H](O[C@H]2C[C@@](C)(OC)[C@@H](O)[C@H](C)O2)[C@H](C)[C@@H](O[C@@H]2O[C@H](C)C[C@H](N(C)C)[C@H]2O)[C@](C)(O)C[C@@H](C)C(=O)[C@H](C)[C@@H](O)[C@]1(C)O [ERYTHROMYCIN]		Active		Active	Active	Active	Non-toxic	inactive	Non-toxic	inactive
CC[C@H]1OC(=O)[C@H](C)[C@@H](O[C@H]2C[C@@](C)(OC)[C@@H](O)[C@H](C)O2)[C@H](C)[C@@H](O[C@@H]2O[C@H](C)C[C@H](N(C)C)[C@H]2O)[C@](C)(O)C[C@@H](C)/C(=N\OCOCCOC)[C@H](C)[C@@H](O)[C@]1(C)O [ROXITHROMYCIN]		Active		Active	Active		Non-toxic	inactive	Non-toxic	inactive
SPIRAMYCIN	inactive									

Reference: ChEMBL document CHEMBL1255296, “Effect of 14-membered-ring macrolides on production of interleukin-8 mediated by protease-activated receptor 2 in human keratinocytes” (Antimicrob Agents Chemother, 2008)
